Measurements published in patent US8063071B2 (GlaxoSmithKline, LLC, priority 2007, dated 2011).
Counter-ions that a name gives are not always drawn.

target: T1, Recombinant human IKKβ (residues 1-737) (Homo sapiens, UniProt O14920); assay: IKK2 assay (TR-FRET); type: biochemical; conditions: ATP 1 μM final, read-out: pIC50 against IKK2 (converted)
T1 construct: Recombinant human IKKβ (residues 1-737); GST (C); made in house
T1 sequence (O14920 1-737): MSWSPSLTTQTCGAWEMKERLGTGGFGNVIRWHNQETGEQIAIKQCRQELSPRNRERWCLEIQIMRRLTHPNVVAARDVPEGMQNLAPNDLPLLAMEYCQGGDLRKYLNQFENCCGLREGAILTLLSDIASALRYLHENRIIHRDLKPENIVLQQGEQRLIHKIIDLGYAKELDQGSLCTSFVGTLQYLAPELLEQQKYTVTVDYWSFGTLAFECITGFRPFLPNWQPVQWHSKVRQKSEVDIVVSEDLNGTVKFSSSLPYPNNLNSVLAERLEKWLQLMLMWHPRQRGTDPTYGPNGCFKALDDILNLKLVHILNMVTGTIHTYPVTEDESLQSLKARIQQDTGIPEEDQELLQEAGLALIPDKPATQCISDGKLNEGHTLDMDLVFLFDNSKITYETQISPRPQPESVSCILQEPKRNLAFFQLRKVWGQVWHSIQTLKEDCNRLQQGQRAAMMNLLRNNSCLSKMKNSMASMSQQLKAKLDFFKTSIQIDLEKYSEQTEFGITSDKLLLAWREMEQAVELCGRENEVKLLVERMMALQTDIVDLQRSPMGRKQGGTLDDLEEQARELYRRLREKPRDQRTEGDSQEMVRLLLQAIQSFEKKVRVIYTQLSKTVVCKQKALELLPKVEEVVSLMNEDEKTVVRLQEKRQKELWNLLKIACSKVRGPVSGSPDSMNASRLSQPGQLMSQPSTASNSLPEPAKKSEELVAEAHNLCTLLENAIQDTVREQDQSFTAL
Method: Recombinant human IKKβ (residues 1-737) was expressed in baculovirus as a C-terminal GST-tagged fusion protein, and its activity was assessed using a time-resolved fluorescence resonance energy transfer (TR-FRET) assay. Briefly, IKK2 (0.5 nM-5 nM final) diluted in assay buffer (50 mM HEPES, 10 mM MgCl2, 1 mM CHAPS pH 7.4 with 1 mM DTT and 0.01% w/v BSA) was added to wells containing various concentrations of compound or DMSO vehicle (1.7% final). The reaction was initiated by the addition of GST-IB substrate (25 nM final)/ATP (1 μM final), in a total volume of 6 μl. The reaction was incubated for 15 minutes at room temperature, then terminated by the addition of 3 μl of detection reagent in buffer containing 50 mM EDTA (100 mM HEPES pH 7.4, 150 mM NaCl, 50 mM EDTA and 0.01% w/v BSA) containing antiphosphoserine-IB-32/36 monoclonal antibody 12C2 (Cell Signalling Technology, Beverly Mass., USA) labelled with W-1024 europium chelate (Wallac OY, Turku, Finland), and an APC-labelled anti-GST antibody (Prozyme, San Leandro, Calif., USA) was added and the reaction was further incubated for 60 minutes at room temperature. The degree of phosphorylation of GST-IB was measured using a BMG Rubystar plate reader (BMG Labtech, Aylesbury, UK) as a ratio of specific 665 nm energy transfer signal to reference europium 620 nm signal.

**Q.** With `CCS(=O)(=O)N1CCC(c2c[nH]c3c(C(N)=O)cc(-c4ccc(CN[C@@H](C)CO)cc4)cc23)CC1` [Example 150, 3-[1-(ethylsulfonyl)-4-piperidinyl]-5-[4-({[(1S)-2-hydroxy-1-methylethyl]amino}methyl)phenyl]-1H-indole-7-carboxamide trifluoroacetate] as the compound, how does the IC50 read?
**A.** The IC50 was at most 10 µM.

**Q.** Which IC50 does the source give for `CCS(=O)(=O)N1CCC(c2c[nH]c3c(C(N)=O)cc(-c4ccc(CNC[C@@H](C)O)cc4)cc23)CC1` [Example 152, 3-[1-(ethylsulfonyl)-4-piperidinyl]-5-[4-({[(2R)-2-hydroxypropyl]amino}methyl)phenyl]-1H-indole-7-carboxamide trifluoroacetate] here?
**A.** The IC50 was at most 10 µM.

**Q.** For `CCS(=O)(=O)N1CCC(c2c[nH]c3c(C(N)=O)cc(-c4ccc(CN[C@H](C)C(C)C)s4)cc23)CC1` [Example 183, 5-[5-({[(1R)-1,2-dimethylpropyl]amino}methyl)-2-thienyl]-3-[1-(ethylsulfonyl)-4-piperidinyl]-1H-indole-7-carboxamide], which IC50 is on record?
**A.** The IC50 was at most 10 µM.

**Q.** How did the IC50 turn out when `CCS(=O)(=O)N1CCC(c2c[nH]c3c(C(N)=O)cc(-c4ccc(CNCCC(C)(C)C)s4)cc23)CC1` [Example 199, 5-(5-{[(3,3-dimethylbutyl)amino]methyl}-2-thienyl)-3-[1-(ethylsulfonyl)-4-piperidinyl]-1H-indole-7-carboxamide] was run?
**A.** The IC50 was at most 10 µM.

**Q.** With `CCN(C)c1ccc(-c2cc(C(N)=O)c3[nH]cc(C4CCN(S(=O)(=O)CC)CC4)c3c2)cn1` [Example 225, 5-{6-[ethyl(methyl)amino]-3-pyridinyl}-3-[1-(ethylsulfonyl)-4-piperidinyl]-1H-indole-7-carboxamide trifluoroacetate] as the compound, how does the IC50 read?
**A.** Its IC50 is at most 10 µM.

**Q.** With `CCS(=O)(=O)N1CCC(c2c[nH]c3c(C(N)=O)cc(-c4ccc(N(C)C)nc4)cc23)CC1` [Example 226, 5-[6-(dimethylamino)-3-pyridinyl]-3-[1-(ethylsulfonyl)-4-piperidinyl]-1H-indole-7-carboxamide trifluoroacetate] as the compound, how does the IC50 read?
**A.** The IC50 was at most 10 µM.

**Q.** For `CCS(=O)(=O)N1CCC(c2c[nH]c3c(C(N)=O)cc(-c4ccc(NC(C)C)nc4)cc23)CC1` [Example 228, 3-[1-(ethylsulfonyl)-4-piperidinyl]-5-{6-[(1-methylethyl)amino]-3-pyridinyl}-1H-indole-7-carboxamide trifluoroacetate], which IC50 is on record?
**A.** The IC50 was at most 10 µM.

**Q.** For `CCS(=O)(=O)N1CCC(c2c[nH]c3c(C(N)=O)cc(-c4ccc(N5CCOCC5)nc4)cc23)CC1` [Example 229, 3-[1-(ethylsulfonyl)-4-piperidinyl]-5-[6-(4-morpholinyl)-3-pyridinyl]-1H-indole-7-carboxamide], which IC50 is on record?
**A.** The IC50 was at most 10 µM.

**Q.** Which IC50 does the source give for `CCS(=O)(=O)N1CCC(c2c[nH]c3c(C(N)=O)cc(-c4cnn(CCN(C)C)c4)cc23)CC1` [Example 252, 5-{1-[2-(dimethylamino)ethyl]-1H-pyrazol-4-yl}-3-[1-(ethylsulfonyl)-4-piperidinyl]-1H-indole-7-carboxamide] here?
**A.** The IC50 was at most 10 µM.

**Q.** Which IC50 does the source give for `CCS(=O)(=O)N1CCC(c2c[nH]c3c(C(N)=O)cc(-c4ccc(OC)c(CN(C)C)c4)cc23)CC1` [Example 263, 5-[3-[(dimethylamino)methyl]-4-(methyloxy)phenyl]-3-[1-(ethylsulfonyl)-4-piperidinyl]-1H-indole-7-carboxamide trifluoroacetate] here?
**A.** Its IC50 is at most 10 µM.

**Q.** How did the IC50 turn out when `CCS(=O)(=O)N1CCC(c2c[nH]c3c(C(N)=O)cc(-c4ccc(OC)c(CN5CCOCC5)c4)cc23)CC1` [Example 264, 3-[1-(ethylsulfonyl)-4-piperidinyl]-5-[4-(methyloxy)-3-(4-morpholinylmethyl)phenyl]-1H-indole-7-carboxamide trifluoroacetate] was run?
**A.** The IC50 was at most 10 µM.

**Q.** With `CCS(=O)(=O)N1CCC(c2c[nH]c3c(C(N)=O)cc(-c4ccc(OC)c(CNC(C)C)c4)cc23)CC1` [Example 265, 3-[1-(ethylsulfonyl)-4-piperidinyl]-5-[3-{[(1-methylethyl)amino]methyl}-4-(methyloxy)phenyl]-1H-indole-7-carboxamide trifluoroacetate] as the compound, how does the IC50 read?
**A.** The IC50 was at most 10 µM.

**Q.** How did the IC50 turn out when `CCS(=O)(=O)N1CCC(c2c[nH]c3c(C(N)=O)cc(-c4ccc(OC)c(CNC)c4)cc23)CC1` [Example 266, 3-[1-(ethylsulfonyl)-4-piperidinyl]-5-[3-[(methylamino)methyl]-4-(methyloxy)phenyl]-1H-indole-7-carboxamide trifluoroacetate] was run?
**A.** The IC50 was at most 10 µM.

**Q.** For `CCS(=O)(=O)N1CCC(c2c[nH]c3c(C(N)=O)cc(-c4ccc(OC)c(CNCC(C)(C)C)c4)cc23)CC1` [Example 267, 5-[3-{[(2,2-dimethylpropyl)amino]methyl}-4-(methyloxy)phenyl]-3-[1-(ethylsulfonyl)-4-piperidinyl]-1H-indole-7-carboxamide trifluoroacetate], which IC50 is on record?
**A.** Its IC50 is at most 10 µM.

**Q.** `CCS(=O)(=O)N1CCC(c2c[nH]c3c(C(N)=O)cc(-c4cnn(CCN(C)CCO)c4)cc23)CC1` [Example 268, 3-[1-(ethylsulfonyl)-4-piperidinyl]-5-(1-{2-[(2-hydroxyethyl)(methyl)amino]ethyl}-1H-pyrazol-4-yl)-1H-indole-7-carboxamide] was tested. Which IC50 did it give?
**A.** The IC50 was at most 10 µM.

**Q.** How did the IC50 turn out when `CCNCc1cc(CNCC)cc(-c2cc(C(N)=O)c3[nH]cc(C4CCN(S(=O)(=O)CC)CC4)c3c2)c1` [Example 277, 5-{3,5-bis[(ethylamino)methyl]phenyl}-3-[1-(ethylsulfonyl)-4-piperidinyl]-1H-indole-7-carboxamide trifluoroacetate] was run?
**A.** Its IC50 is over 10 µM.

**Q.** How did the IC50 turn out when `CCS(=O)(=O)N1CCC(c2c[nH]c3c(C(N)=O)cc(-c4cc(CN(C)C)cc(CN(C)C)c4)cc23)CC1` [Example 278, 5-{3,5-bis[(dimethylamino)methyl]phenyl}-3-[1-(ethylsulfonyl)-4-piperidinyl]-1H-indole-7-carboxamide trifluoroacetate] was run?
**A.** The IC50 was over 10 µM.

**Q.** Which IC50 does the source give for `CCS(=O)(=O)N1CCC(c2c[nH]c3c(C(N)=O)cc(-c4cccc(C5CCCCN5)c4)cc23)CC1` (stereo not drawn) [Example 279, 3-[1-(ethylsulfonyl)-4-piperidinyl]-5-[3-(2-piperidinyl)phenyl]-1H-indole-7-carboxamide trifluoroacetate] here?
**A.** Its IC50 is at most 10 µM.

**Q.** `CCNC(C)c1cccc(-c2cc(C(N)=O)c3[nH]cc(C4CCN(S(=O)(=O)CC)CC4)c3c2)c1` (stereo not drawn) [Example 280, 5-{3-[1-(ethylamino)ethyl]phenyl}-3-[1-(ethylsulfonyl)-4-piperidinyl]-1H-indole-7-carboxamide trifluoroacetate] was tested. Which IC50 did it give?
**A.** Its IC50 is at most 10 µM.

**Q.** `CCS(=O)(=O)N1CCC(c2c[nH]c3c(C(N)=O)cc(-c4cccc(C(C)N(C)C)c4)cc23)CC1` (stereo not drawn) [Example 281, 5-{3-[1-(dimethylamino)ethyl]phenyl}-3-[1-(ethylsulfonyl)-4-piperidinyl]-1H-indole-7-carboxamide trifluoroacetate] was tested. Which IC50 did it give?
**A.** Its IC50 is at most 10 µM.

**Q.** `CCS(=O)(=O)N1CCC(c2c[nH]c3c(C(N)=O)cc(-c4cc(F)cc(CNC)c4)cc23)CC1` [Example 282, 3-[1-(ethylsulfonyl)-4-piperidinyl]-5-{3-fluoro-5-[(methylamino)methyl]phenyl}-1H-indole-7-carboxamide trifluoroacetate] was tested. Which IC50 did it give?
**A.** The IC50 was at most 10 µM.

**Q.** Which IC50 does the source give for `CCNCc1cc(F)cc(-c2cc(C(N)=O)c3[nH]cc(C4CCN(S(=O)(=O)CC)CC4)c3c2)c1` [Example 283, 5-{3-[(ethylamino)methyl]-5-fluorophenyl}-3-[1-(ethylsulfonyl)-4-piperidinyl]-1H-indole-7-carboxamide trifluoroacetate] here?
**A.** Its IC50 is at most 10 µM.

**Q.** `CCCNCc1cc(F)cc(-c2cc(C(N)=O)c3[nH]cc(C4CCN(S(=O)(=O)CC)CC4)c3c2)c1` [Example 284, 3-[1-(ethylsulfonyl)-4-piperidinyl]-5-{3-fluoro-5-[(propylamino)methyl]phenyl}-1H-indole-7-carboxamide trifluoroacetate] was tested. Which IC50 did it give?
**A.** The IC50 was at most 10 µM.

**Q.** How did the IC50 turn out when `CCS(=O)(=O)N1CCC(c2c[nH]c3c(C(N)=O)cc(-c4cc(F)cc(CNC(C)C)c4)cc23)CC1` [Example 285, 3-[1-(ethylsulfonyl)-4-piperidinyl]-5-(3-fluoro-5-{[(1-methylethyl)amino]methyl}phenyl)-1H-indole-7-carboxamide trifluoroacetate] was run?
**A.** The IC50 was at most 10 µM.
